For 31 compounds, Activity results are on record in patent publication US7566733B2, “Benzimidazole derivatives useful as selective androgen receptor modulators (sarms)” (priority 2004, dated 2009).

The test system of the assay is castrated male Sprague Dawley rats. The assay can be described thus: Ventral Prostate and Seminal Vesicle Weight In Vivo Assay. Further: key: active: the non weight adjusted prostate weight was ≦40 mg or the % Inhibition prostate weight, body weight adjusted was ≧40%@2 mg/day dosage; inactive: did not meet the specified criteria defined above. The settings on record: inhibition of testosterone-enhanced prostate weight; immature castrated rats, once daily for five days, usually orally 40 mg/kg, with testosterone propionate 2 mg/kg s.c. As for the experimental part:
Ventral Prostate and Seminal Vesicle Weight In Vivo Assay
Immature (approximately 50 g) castrated male Sprague Dawley rats (Charles River) were treated once daily for five days with test compound (usually given orally at 40 mg/kg in a volume of 0.3 mL, in 30% cyclodextrin or 0.5% methylcellulose vehicle) and with testosterone propionate (given subcutaneously by injection at the nape of the neck at 2 mg/kg, in a volume of 0.1 mL in sesame oil). On the sixth day, the rats were euthanized by asphyxiation in carbon dioxide. Ventral prosatates and seminal vesicles were removed and their wet weights determined. Test compound activity was determined as the percent inhibition of testosterone-enhanced tissue weights, with a vehicle-treated control group set to zero percent and a testosterone alone-treated control group set to 100%.
Representative compounds of the present invention were tested according to the procedure described, with results as listed in Table 7 below. A test compound is listed as “active” if the non weight adjusted prostate weight was ≦40 mg or the % Inhibition prostate weight, body weight adjusted was ≧40%@2 mg/day dosage. ID50's, if determined, of ≦15 mg/day also indicated an “active” compound.

Each structure is given as a SMILES string.

For `O=C(Cn1c(CC(F)(F)F)nc2cc(Cl)c(Cl)cc21)c1ccc(-c2ccccn2)s1` [Compound 88, 2-[5,6-Dichloro-2-(2,2,2-trifluoro-ethyl)-benzoimidazol-1-yl]-1-(5-pyridin-2-yl-thiophen-2-yl)-ethanone], the result was inactive.

In the case of `CCSCC(C)(O)c1nc2cc(Cl)c(Cl)cc2n1CC` (stereo not shown) [Compound 31, 2-(5,6-Dichloro-1-ethyl-1H-benzoimidazol-2-yl)-1-ethylsulfanyl-propan-2-ol], the result was active. As for `Fc1ccccc1Cn1c(CC(F)(F)F)nc2cc(Cl)c(Cl)cc21` [Compound 117, 5,6-Dichloro-1-(2-fluoro-benzyl)-2-(2,2,2-trifluoro-ethyl)-1H-benzoimidazole], the entry is “active”. For `FC(F)(F)Cc1nc2cc(Cl)c(Cl)cc2n1Cc1ccc(C(F)(F)F)cc1` [Compound 100, 5,6-Dichloro-2-(2,2,2-trifluoro-ethyl)-1-(4-trifluoromethyl-benzyl)-1H-benzoimidazole] the value was “active”. For `FC(F)(F)Cc1nc2cc(Cl)c(Cl)cc2n1Cc1ccc(-c2csnn2)cc1` [Compound 132, 5,6-Dichloro-1-(4-[1,2,3]thiadiazol-4-yl-benzyl)-2-(2,2,2-trifluoro-ethyl)-1H-benzoimidazole] the value was “inactive”; for `N#Cc1cccc(Cn2c(CC(F)(F)F)nc3cc(Cl)c(Cl)cc32)c1` [Compound 109, 3-[5,6-Dichloro-2-(2,2,2-trifluoro-ethyl)-benzoimidazol-1-ylmethyl]-benzonitrile], “active”; for `FC(F)(F)Cc1nc2cc(Cl)c(Cl)cc2n1Cc1cccc(C(F)(F)F)c1` [Compound 93, 5,6-Dichloro-2-(2,2,2-trifluoro-ethyl)-1-(3-trifluoromethyl-benzyl)-1H-benzoimidazole], “active”. Consider `CCOCC(C)(O)c1nc2cc(Cl)c(Cl)cc2n1C` (stereo not shown) [Compound 10], for which the outcome was inactive. For `FC(F)(F)Cc1nc2cc(Cl)c(Cl)cc2n1Cc1ccccc1Br` [Compound 151, 1-(2-Bromo-benzyl)-5,6-dichloro-2-(2,2,2-trifluoro-ethyl)-1H-benzoimidazole] the value was “active”; for `O=C(Cn1c(CC(F)(F)F)nc2cc(Cl)c(Cl)cc21)c1ccccn1` [Compound 92, 2-[5,6-Dichloro-2-(2,2,2-trifluoro-ethyl)-benzoimidazol-1-yl]-1-pyridin-2-yl-ethanone], “active”. For `CC(O)(c1nc2cc(Cl)c(Cl)cc2[nH]1)C(F)(F)F` (stereo not shown) [Compound 20] the value was “inactive”; for `FC(F)(F)Cc1nc2cc(Cl)c(Cl)cc2n1Cc1ccccn1` [Compound 102, 5,6-Dichloro-1-pyridin-2-ylmethyl-2-(2,2,2-trifluoro-ethyl)-1H-benzoimidazole], “active”. Consider `CSCn1c(CC(F)(F)F)nc2cc(Cl)c(Cl)cc21` [Compound 58, 5,6-Dichloro-1-methylsulfanylmethyl-2-(2,2,2-trifluoro-ethyl)-1H-benzoimidazole], for which the result was active. As for `ON=C(c1nc2cc(Cl)c(Cl)cc2[nH]1)C(F)(F)F` (racemic) [Compound 141, 1-(5,6-Dichloro-1H-benzoimidazol-2-yl)-2,2,2-trifluoro-ethanone Oxime], the entry is “active”; as for `O=C(Cn1c(CC(F)(F)F)nc2cc(Cl)c(Cl)cc21)c1cccs1` [Compound 91, 2-[5,6-Dichloro-2-(2,2,2-trifluoro-ethyl)-benzoimidazol-1-yl]-1-thiophen-2-yl-ethanone], “active”. As for `O=C(Cn1c(CC(F)(F)F)nc2cc(Cl)c(Cl)cc21)c1cccnc1` [Compound 87, 2-[5,6-Dichloro-2-(2,2,2-trifluoro-ethyl)-benzoimidazol-1-yl]-1-pyridin-3-yl-ethanone], the entry is “inactive”. As for `COc1ccccc1C(=O)Cn1c(CC(F)(F)F)nc2cc(Cl)c(Cl)cc21` [Compound 90, 2-[5,6-Dichloro-2-(2,2,2-trifluoro-ethyl)-benzoimidazol-1-yl]-1-(2-methoxy-phenyl)-ethanone], the entry is “inactive”. Consider `Cc1oncc1Cn1c(CC(F)(F)F)nc2cc(Cl)c(Cl)cc21` [Compound 133, 5,6-Dichloro-1-(5-methyl-isoxazol-4-ylmethyl)-2-(2,2,2-trifluoro-ethyl)-1H-benzoimidazole], for which the result was active.

With `FC(F)(F)Cc1nc2cc(Cl)c(Cl)cc2n1Cc1ccccc1` [Compound 97, 1-Benzyl-5,6-dichloro-2-(2,2,2-trifluoro-ethyl)-1H-benzoimidazole], the outcome was active. As to `O=[N+]([O-])c1ccccc1Cn1c(CC(F)(F)F)nc2cc(Cl)c(Cl)cc21` [Compound 137, 5,6-Dichloro-1-(2-nitro-benzyl)-2-(2,2,2-trifluoro-ethyl)-1H-benzoimidazole], the result was active. With `Cn1c(C(C)(O)C(F)(F)F)nc2cc(Cl)c(Cl)cc21` (stereo not shown) [Compound 9], the result was active. Consider `FC(F)(F)Cc1nc2cc(Cl)c(Cl)cc2n1Cc1ccc(OC(F)(F)F)cc1` [Compound 101, 5,6-Dichloro-2-(2,2,2-trifluoro-ethyl)-1-(4-trifluoromethoxy-benzyl)-1H-benzoimidazole], for which the result was inactive. On to `Cc1cc2[nH]c(C(O)C(F)(F)F)nc2cc1Cl` (stereo not shown) [Compound 128, 1-(5-Chloro-6-methyl-1H-benzoimidazol-2-yl-)2,2,2-trifluoro-ethanol], for which the outcome was inactive. For `CCn1c(C(C)(O)CS(=O)(=O)CC)nc2cc(Cl)c(Cl)cc21` (stereo not shown) [Compound 48, 2-(5,6-Dichloro-1-ethyl-1H-benzoimidazol-2-yl)-1-ethanesulfonyl-propan-2-ol] the value was “active”. As for `CC(O)(CO)c1nc2cc(Cl)c(Cl)cc2[nH]1` (stereo not shown) [Compound 4], the entry is “active”. As for `FC(F)(F)Cc1nc2cc(Cl)c(Cl)cc2n1Cc1ccc(-n2cccc2)cc1` [Compound 138, 5,6-Dichloro-1-(4-pyrrol-1-yl-benzyl)-2-(2,2,2-trifluoro-ethyl)-1H-benzoimidazole], the entry is “active”. With `CS(=O)(=O)Cn1c(CC(F)(F)F)nc2cc(Cl)c(Cl)cc21` [Compound 73, 5,6-Dichloro-1-methanesulfonylmethyl-2-(2,2,2-trifluoro-ethyl)-1H-benzoimidazole], the result was active. As for `OC(c1nc2cc(Cl)c(Cl)cc2[nH]1)C(F)(F)F` (racemic) [Compound 59, 1-(5,6-DiChloro-1H-benzoimidazol-2-yl-)2,2,2-trifluoro-ethanol], the entry is “active”; as for `COc1cccc(Cn2c(CC(F)(F)F)nc3cc(Cl)c(Cl)cc32)c1` [Compound 129, 5,6-Dichloro-1-(3-methoxy-benzyl)-2-(2,2,2-trifluoro-ethyl)-1H-benzoimidazole], “inactive”.

As for `OCCn1c(CC(F)(F)F)nc2cc(Cl)c(Cl)cc21` [Compound 98, 2-[5,6-Dichloro-2-(2,2,2-trifluoro-ethyl)-benzoimidazol-1-yl]-ethanol], the result was active. As for `O=C(c1nc2cc(Cl)c(F)cc2[nH]1)C(F)(F)F` [Compound 159, 1-(5-Chloro-6-fluoro-1H-benzoimidazol-2-yl-)2,2,2-trifluoro-ethanone], the entry is “active”.
